Measurements as given in patent publication US20250332178A1, “METHODS OF TREATING MYCOBACTERIAL INFECTIONS USING TETRACYCLINE COMPOUNDS” (priority 2018, published 2025).
≈ marks a conversion by molar mass, not a printed value. Like-named read-outs stand apart in the source and are kept apart here.

Tests used:
M. chelonae = experiment: MIC (CLSI broth dilution), RGM isolates; type: cell-based; details: Mycobacteroides chelonae, read-out: MIC
M. immunogenum group = experiment: MIC (CLSI broth dilution), RGM isolates; type: cell-based; details: M. immunogenum, read-out: MIC
M. fortuitum group = experiment: MIC (CLSI broth dilution), RGM isolates; type: cell-based; details: Mycolicibacterium fortuitum, read-out: MIC
M. abscessus complex = experiment: MIC (CLSI broth dilution), RGM isolates; type: cell-based; details: Mycobacteroides abscessus, read-out: MIC
M. smegmatis group = experiment: MIC (CLSI broth dilution), RGM isolates; type: cell-based; details: Mycolicibacterium smegmatis, read-out: MIC
[1] = system: rapid-growing mycobacteria (RGM) isolates; experiment: MIC (CLSI broth dilution), all RGM isolates; type: cell-based, nontuberculous mycobacteria; details: all 50 RGM isolates; for MIC50: read-out: MIC50; for MIC90: read-out: MIC90
M. mucogenium group = experiment: MIC (CLSI broth dilution), RGM isolates; type: cell-based; details: read-out: MIC
M. simiae = experiment: MIC (CLSI broth dilution), slow-growing NTM isolates; type: cell-based; details: read-out: MIC
M. arupense = experiment: as above; type: cell-based; details: isolate 11, Other; read-out: MIC
[2] = isolate 35, M. immunogenum group
[3] = isolate 36, M. immunogenum group
[4] = isolate 37, M. immunogenum group
[5] = isolate 38, M. immunogenum group
[6] = isolate 23, M. fortuitum group, M. fortuitum
[7] = isolate 24, M. fortuitum group, M. fortuitum
[8] = isolate 25, M. fortuitum group, M. fortuitum
[9] = isolate 26, M. fortuitum group, M. porcinum
[10] = isolate 27, M. fortuitum group, M. porcinum
[11] = isolate 28, M. fortuitum group, M. porcinum/M. boenickei
[12] = isolate 29, M. fortuitum group, M. porcinum/M. boenickei
[13] = isolate 30, M. fortuitum group, M. porcinum/M. boenickei
[14] = isolate 31, M. fortuitum group, M. senegalense
[15] = isolate 32, M. fortuitum group, M. senegalense
[16] = isolate 33, M. fortuitum group, M. senegalense
[17] = isolate 34, M. fortuitum group, M. senegalense
[18] = isolate 1, M. abscessus complex, erm gene type MAB30
[19] = isolate 2, M. abscessus complex, erm gene type MAB30
[20] = isolate 3, M. abscessus complex, erm gene type MAB30
[21] = isolate 4, M. abscessus complex, erm gene type massiliense
[22] = isolate 5, M. abscessus complex, erm gene type massiliense/subsp. abs hybrid
[23] = isolate 6, M. abscessus complex, erm gene type Type 1 abscessus
[24] = isolate 7, M. abscessus complex, erm gene type Type 1 abscessus
[25] = isolate 8, M. abscessus complex, erm gene type Type 1 abscessus
[26] = isolate 9, M. abscessus complex, erm gene type Type 1 abscessus
[27] = isolate 10, M. abscessus complex, erm gene type Type 1 abscessus
[28] = isolate 11, M. abscessus complex, erm gene type Type 6 abscessus
[29] = isolate 12, M. abscessus complex, erm gene type Type 6 abscessus
[30] = isolate 13, M. abscessus complex, erm gene type Type 6 abscessus
[31] = isolate 14, M. abscessus complex, erm gene type Type 6 abscessus
[32] = isolate 15, M. abscessus complex, erm gene type Type 7 abscessus
[33] = isolate 16, M. abscessus complex, erm gene type Type 7 abscessus
[34] = isolate 17, M. abscessus complex, erm gene type Type 8 abscessus
[35] = isolate 49, M. smegmatis group, M. goodii
[36] = isolate 50, M. smegmatis group, M. wolinskyi
[37] = isolate 39, M. mucogenicum group, M. mucogenicum
[38] = isolate 40, M. mucogenicum group, M. mucogenicum
[39] = isolate 41, M. mucogenicum group, M. mucogenicum
[40] = isolate 42, M. mucogenicum group, M. mucogenicum
[41] = isolate 43, M. mucogenicum group, M. phocaicum
[42] = isolate 44, M. mucogenicum group, M. phocaicum
[43] = isolate 45, M. mucogenicum group, M. phocaicum
[44] = isolate 46, M. mucogenicum group, M. phocaicum
[45] = isolate 47, M. mucogenicum group, M. phocaicum
[46] = isolate 48, M. mucogenicum group, M. phocaicum

Work on CO[C@@]1(NC(=O)Cc2cccs2)C(=O)N2C(C(=O)O)=C(COC(N)=O)CS[C@@H]21 [FOX, cefoxitin] yielded an MIC (M. chelonae; isolate 18, M. chelonae) greater than 64 µg/mL, an MIC (M. chelonae; isolate 19, M. chelonae) greater than 64 µg/mL and an MIC (M. chelonae; isolate 20, M. chelonae) greater than 64 µg/mL. The MIC (M. chelonae; isolate 21, M. chelonae) was greater than 64 µg/mL, the MIC (M. chelonae; isolate 22, M. chelonae) was greater than 64 µg/mL and the MIC (M. immunogenum group; [2]) was greater than 64 µg/mL. For the same compound, the MIC (M. immunogenum group; [3]) was greater than 64 µg/mL, the MIC (M. immunogenum group; [4]) was greater than 64 µg/mL and the MIC (M. immunogenum group; [5]) was greater than 64 µg/mL. It also gave an MIC (M. fortuitum group; [6]) of 32 µg/mL (≈ 74.9 µM), an MIC (M. fortuitum group; [7]) greater than 64 µg/mL and an MIC (M. fortuitum group; [8]) of 32 µg/mL (≈ 74.9 µM). For the same compound, the MIC (M. fortuitum group; [9]) was 32 µg/mL (≈ 74.9 µM), the MIC (M. fortuitum group; [10]) was 32 µg/mL (≈ 74.9 µM) and the MIC (M. fortuitum group; [11]) was 32 µg/mL (≈ 74.9 µM). For the same compound, the MIC (M. fortuitum group; [12]) was 32 µg/mL (≈ 74.9 µM), the MIC (M. fortuitum group; [13]) was no more than 16 µg/mL and the MIC (M. fortuitum group; [14]) was 32 µg/mL (≈ 74.9 µM). It also gave an MIC (M. fortuitum group; [15]) of 32 µg/mL (≈ 74.9 µM), an MIC (M. fortuitum group; [16]) of less than 16 µg/mL and an MIC (M. fortuitum group; [17]) of 32 µg/mL (≈ 74.9 µM). It also gave an MIC (M. abscessus complex; [18]) of 32 µg/mL (≈ 74.9 µM), an MIC (M. abscessus complex; [19]) of 32 µg/mL (≈ 74.9 µM) and an MIC (M. abscessus complex; [20]) of 32 µg/mL (≈ 74.9 µM). It also gave an MIC (M. abscessus complex; [21]) of 32 µg/mL (≈ 74.9 µM), an MIC (M. abscessus complex; [22]) of 32 µg/mL (≈ 74.9 µM) and an MIC (M. abscessus complex; [23]) of 32 µg/mL (≈ 74.9 µM). For the same compound, the MIC (M. abscessus complex; [24]) was 32 µg/mL (≈ 74.9 µM), the MIC (M. abscessus complex; [25]) was 32 µg/mL (≈ 74.9 µM) and the MIC (M. abscessus complex; [26]) was 32 µg/mL (≈ 74.9 µM). For the same compound, the MIC (M. abscessus complex; [27]) was 32 µg/mL (≈ 74.9 µM), the MIC (M. abscessus complex; [28]) was 32 µg/mL (≈ 74.9 µM) and the MIC (M. abscessus complex; [29]) was 32 µg/mL (≈ 74.9 µM). For the same compound, the MIC (M. abscessus complex; [30]) was 32 µg/mL (≈ 74.9 µM), the MIC (M. abscessus complex; [31]) was 64 µg/mL (≈ 150 µM) and the MIC (M. abscessus complex; [32]) was 32 µg/mL (≈ 74.9 µM). The MIC (M. abscessus complex; [33]) was 32 µg/mL (≈ 74.9 µM), the MIC (M. abscessus complex; [34]) was 32 µg/mL (≈ 74.9 µM) and the MIC (M. smegmatis group; [35]) was greater than 64 µg/mL. For the same compound, the MIC (M. smegmatis group; [36]) was 64 µg/mL (≈ 150 µM), the MIC50 [1] was 32 µg/mL (≈ 74.9 µM) and the MIC90 [1] was greater than 64 µg/mL. It also gave an MIC (M. mucogenium group; [37]) of no more than 16 µg/mL, an MIC (M. mucogenium group; [38]) of no more than 16 µg/mL and an MIC (M. mucogenium group; [39]) of no more than 16 µg/mL. The MIC (M. mucogenium group; [40]) was no more than 16 µg/mL, the MIC (M. mucogenium group; [41]) was no more than 16 µg/mL and the MIC (M. mucogenium group; [42]) was no more than 16 µg/mL. It also gave an MIC (M. mucogenium group; [43]) of no more than 16 µg/mL, an MIC (M. mucogenium group; [44]) of no more than 16 µg/mL and an MIC (M. mucogenium group; [45]) of no more than 16 µg/mL. The MIC (M. mucogenium group; [46]) was no more than 16 µg/mL.
Compound CO[C@H]1/C=C/O[C@@]2(C)Oc3c(C)c(O)c4c(c3C2=O)C2=NC3(CCN(CC(C)C)CC3)NC2=C(NC(=O)/C(C)=C\C=C\[C@H](C)[C@H](O)[C@@H](C)[C@@H](O)[C@@H](C)[C@H](OC(C)=O)[C@@H]1C)C4=O [RFB, rifabutin] has an MIC (M. simiae; isolate 13, Other) of no more than 0.25 µg/mL, an MIC (M. simiae; isolate 14, Other) greater than 2 µg/mL and an MIC (M. simiae; isolate 15, Other) greater than 2 µg/mL. For the same compound, the MIC (M. arupense) was no more than 0.25 µg/mL.
Compound CN(C)c1ccc(O)c2c1C[C@H]1C[C@H]3[C@H](N(C)C)C(O)=C(C(N)=O)C(=O)[C@@]3(O)C(O)=C1C2=O [minocycline] has an MIC (M. chelonae; isolate 18, M. chelonae) greater than 8 µg/mL, an MIC (M. chelonae; isolate 19, M. chelonae) greater than 8 µg/mL and an MIC (M. chelonae; isolate 20, M. chelonae) greater than 8 µg/mL. For the same compound, the MIC (M. chelonae; isolate 21, M. chelonae) was greater than 8 µg/mL, the MIC (M. chelonae; isolate 22, M. chelonae) was greater than 8 µg/mL and the MIC (M. immunogenum group; [2]) was greater than 8 µg/mL. For the same compound, the MIC (M. immunogenum group; [3]) was no more than 0.5 µg/mL, the MIC (M. immunogenum group; [4]) was greater than 8 µg/mL and the MIC (M. immunogenum group; [5]) was greater than 8 µg/mL. For the same compound, the MIC (M. fortuitum group; [6]) was no more than 0.5 µg/mL, the MIC (M. fortuitum group; [7]) was no more than 0.5 µg/mL and the MIC (M. fortuitum group; [8]) was greater than 8 µg/mL. It also gave an MIC (M. fortuitum group; [9]) of 1 µg/mL (≈ 2.19 µM), an MIC (M. fortuitum group; [10]) of 4 µg/mL (≈ 8.74 µM) and an MIC (M. fortuitum group; [11]) of 1 µg/mL (≈ 2.19 µM). The MIC (M. fortuitum group; [12]) was 4 µg/mL (≈ 8.74 µM), the MIC (M. fortuitum group; [13]) was 8 µg/mL (≈ 17.5 µM) and the MIC (M. fortuitum group; [14]) was no more than 0.5 µg/mL. The MIC (M. fortuitum group; [15]) was no more than 0.5 µg/mL, the MIC (M. fortuitum group; [16]) was no more than 0.5 µg/mL and the MIC (M. fortuitum group; [17]) was no more than 0.5 µg/mL. It also gave an MIC (M. simiae; isolate 13, Other) of 4 µg/mL (≈ 8.74 µM), an MIC (M. simiae; isolate 14, Other) greater than 8 µg/mL and an MIC (M. simiae; isolate 15, Other) greater than 8 µg/mL. It also gave an MIC (M. abscessus complex; [18]) greater than 8 µg/mL, an MIC (M. abscessus complex; [19]) of 8 µg/mL (≈ 17.5 µM) and an MIC (M. abscessus complex; [20]) greater than 8 µg/mL. The MIC (M. abscessus complex; [21]) was 4 µg/mL (≈ 8.74 µM), the MIC (M. abscessus complex; [22]) was greater than 8 µg/mL and the MIC (M. abscessus complex; [23]) was greater than 8 µg/mL. For the same compound, the MIC (M. abscessus complex; [24]) was 8 µg/mL (≈ 17.5 µM), the MIC (M. abscessus complex; [25]) was greater than 8 µg/mL and the MIC (M. abscessus complex; [26]) was greater than 8 µg/mL. It also gave an MIC (M. abscessus complex; [27]) greater than 8 µg/mL, an MIC (M. abscessus complex; [28]) of 4 µg/mL (≈ 8.74 µM) and an MIC (M. abscessus complex; [29]) greater than 8 µg/mL. The MIC (M. abscessus complex; [30]) was greater than 8 µg/mL, the MIC (M. abscessus complex; [31]) was 4 µg/mL (≈ 8.74 µM) and the MIC (M. abscessus complex; [32]) was 8 µg/mL (≈ 17.5 µM). It also gave an MIC (M. abscessus complex; [33]) greater than 8 µg/mL, an MIC (M. abscessus complex; [34]) of 4 µg/mL (≈ 8.74 µM) and an MIC (M. smegmatis group; [35]) of no more than 0.5 µg/mL. The MIC (M. smegmatis group; [36]) was no more than 0.5 µg/mL, the MIC50 [1] was 8 µg/mL (≈ 17.5 µM) and the MIC90 [1] was greater than 8 µg/mL. For the same compound, the MIC (M. arupense) was 8 µg/mL (≈ 17.5 µM), the MIC (M. mucogenium group; [37]) was no more than 0.5 µg/mL and the MIC (M. mucogenium group; [38]) was no more than 1 µg/mL. The MIC (M. mucogenium group; [39]) was no more than 0.5 µg/mL, the MIC (M. mucogenium group; [40]) was no more than 0.5 µg/mL and the MIC (M. mucogenium group; [41]) was no more than 0.5 µg/mL. It also gave an MIC (M. mucogenium group; [42]) greater than 8 µg/mL, an MIC (M. mucogenium group; [43]) greater than 8 µg/mL and an MIC (M. mucogenium group; [44]) of 8 µg/mL (≈ 17.5 µM). The MIC (M. mucogenium group; [45]) was no more than 0.5 µg/mL and the MIC (M. mucogenium group; [46]) was 2 µg/mL (≈ 4.37 µM).
For CO[C@H]1/C=C/O[C@@]2(C)Oc3c(C)c(O)c4c(O)c(c(/C=N/N5CCN(C)CC5)c(O)c4c3C2=O)NC(=O)/C(C)=C\C=C\[C@H](C)[C@H](O)[C@@H](C)[C@@H](O)[C@@H](C)[C@H](OC(C)=O)[C@@H]1C [RIF, rifampin], the MIC (M. simiae; isolate 13, Other) was greater than 2 µg/mL, the MIC (M. simiae; isolate 14, Other) was greater than 2 µg/mL and the MIC (M. simiae; isolate 15, Other) was greater than 2 µg/mL. The MIC (M. arupense) was greater than 2 µg/mL.
